Experimental data from article PMC8911579, “(−)-Naringenin 4′,7-dimethyl Ether Isolated from Nardostachys jatamansi Relieves Pain through Inhibition of Multiple Channels” (Molecules, 2022).

How the values were obtained:
[1] = tested on: Kv channels in DRG neurons; test: activation kinetics of Kv currents in DRG neurons; type: cell-based, mouse; settings: in presence of 10 µM; control −6.43 ± 1.21 mV
Excerpt: (§1) The currents in mouse DRG neurons can be separated into IA and IK. They could be distinguished by applying voltage steps from a holding potential of −50 mV, at which IA was almost completely inactivated, while IK remained unchanged. Thereby, IA could be separated by subtracting IK from the total potassium currents. According to these electrophysiological characteristics, the effects of (−)-NRG-DM on potassium currents were examined (Figure 5A). […] Additionally, the effects of (−)-NRG-DM on the kinetics of the Kv channels were further characterized. The Kv currents were elicited by multiple 1500 ms depolarization pulses ranging from −80 mV to +90 mV in 10 mV increments from a holding potential of −80 mV. […] The values of V1/2 in the absence and presence of 10 µM (−)-NRG-DM were −6.43 ± 1.21 mV and −8.08 ± 2.02 mV, respectively (Figure 5D).

Nav1.8 channel = Nav1.8 channel (Homo sapiens, UniProt Q9Y5Y9); test: whole-cell patch-clamp, Nav1.8 stably expressed in HEK293 cells
[2] = tested on: transient outward potassium currents (IA) in DRG neurons; test: whole-cell patch-clamp, transient outward potassium currents in DRG neurons; type: cell-based; settings: Mus musculus, DRG neuron; n = 5
Excerpt: as §1
Dorsal root ganglia (DRG) were dissected from male C57BL/6 mice aged 4~6 weeks. The ganglia were first cut into small pieces and then digested at 37 °C for 20 min in DMEM containing 1 mg/mL collagenase type I and 0.25 mg/mL trypsin (Sigma-Aldrich). Subsequently, the digested small fragments were terminated and resuspended with DMEM/F12 growth medium (Gibco) supplemented with 10% fetal bovine serum (FBS) (Gibco). […]

[3] = tested on: native Nav currents in DRG neurons; test: whole-cell patch-clamp, native sodium currents in DRG neurons; type: cell-based, mouse
Method: A reduction in amplitudes of action potentials manifested that (−)-NRG-DM may inhibit native sodium currents, which are mainly involved in the rising phase of an action potential. To record native sodium currents in acutely isolated DRG neurons, a 50 ms test pulse depolarized to −20 mV from a holding potential of −90 mV was applied. […] To understand how (−)-NRG-DM inhibited Nav channels, the effects of 30 µM compound (−)-NRG-DM on Nav channel kinetics were further characterized. […] In contrast to the lack of effect on the Nav channel activation, (−)-NRG-DM caused a depolarization shift of the steady-state inactivation. The V1/2 value was shifted from −65.72 ± 1.74 mV to −55.34 ± 2.14 mV by 30 µM (−)-NRG-DM (Figure 6G).
Dorsal root ganglia (DRG) were dissected from male C57BL/6 mice aged 4~6 weeks. The ganglia were first cut into small pieces and then digested at 37 °C for 20 min in DMEM containing 1 mg/mL collagenase type I and 0.25 mg/mL trypsin (Sigma-Aldrich). Subsequently, the digested small fragments were terminated and resuspended with DMEM/F12 growth medium (Gibco) supplemented with 10% fetal bovine serum (FBS) (Gibco). Finally, the dissociated DRG neurons were seeded onto 24-well plates with poly-L-lysine-coated coverslips and placed in a 37 °C, 5% CO2 incubator for at least 1 h before electrophysiological experiments.

[4] = tested on: formalin-induced inflammatory pain; test: formalin-induced mouse inflammatory pain model; type: in vivo, ICR mice; settings: phase I and phase II
Method: The formalin test is a classical inflammatory pain model which represents somatic pain. Intraplantar injection of formalin results in a typical two-stage nociceptive behavior, which is characterized by licking and biting of the injected paw. The first phase (0~10 min) mainly reflects nociceptive pain, while the second phase (11~60 min) represents the inflammatory responses. In our study, we tested the effects of (−)-NRG-DM on formalin-induced inflammatory pain in mice. (−)-NRG-DM at 30 mg/kg and 50 mg/kg body weight were individually intraperitoneally administrated 30 min before injection of 1% formalin solution.
Adult male ICR mice weighing 20 ± 2 g were randomly divided into 3 groups (n = 10 for each group) and acclimatized in a transparent observation chamber for at least 30 min before the experiment. Mice were intraperitoneally administrated with vehicle or (−)-NRG-DM (30 or 50 mg/kg) 30 min prior to formalin injection. Then, 1% formalin solution (20 μL per site) was subcutaneously injected into the plantar of the left hind paw to induce acute inflammatory pain. Immediately, mice were put back into the observation chambers. Nociception caused by formalin was assessed by scoring painful behaviors and licking time over a period of 60 min. […]

[5] = tested on: motor coordination in mice; test: rotarod test (motor impairment / neurotoxicity); type: in vivo, ICR mice
Method: To exclude possible non-specific muscle relaxant or sedative effects, the effects of (−)-NRG-DM on motor performance were evaluated in the rotarod test.
To determine the neurotoxicity effects of (−)-NRG-DM, the standardized rotarod test was conducted in male ICR mice weighted 20 ± 2 g. The mice were divided at random into 4 groups (n = 10 for each group). The mice were placed on a rotarod appliance (YLS-4C, Bio-will, Shanghai, China) with a rod of 3 cm diameter, rotating at a constant speed of 6 rpm. The day before the compound test, all mice were pre-trained and only the animals able to remain on the rod for at least 1 min every time in three consecutive trials (3 min) were retained. During the test, the mice were measured in the rotarod test 0.5 h and 1 h after intraperitoneal administration of (−)-NRG-DM. The animals unable to remain on the rod for 3 consecutive periods were considered motor coordination impaired.

Sequence of Nav1.8 channel (Q9Y5Y9 whole entry): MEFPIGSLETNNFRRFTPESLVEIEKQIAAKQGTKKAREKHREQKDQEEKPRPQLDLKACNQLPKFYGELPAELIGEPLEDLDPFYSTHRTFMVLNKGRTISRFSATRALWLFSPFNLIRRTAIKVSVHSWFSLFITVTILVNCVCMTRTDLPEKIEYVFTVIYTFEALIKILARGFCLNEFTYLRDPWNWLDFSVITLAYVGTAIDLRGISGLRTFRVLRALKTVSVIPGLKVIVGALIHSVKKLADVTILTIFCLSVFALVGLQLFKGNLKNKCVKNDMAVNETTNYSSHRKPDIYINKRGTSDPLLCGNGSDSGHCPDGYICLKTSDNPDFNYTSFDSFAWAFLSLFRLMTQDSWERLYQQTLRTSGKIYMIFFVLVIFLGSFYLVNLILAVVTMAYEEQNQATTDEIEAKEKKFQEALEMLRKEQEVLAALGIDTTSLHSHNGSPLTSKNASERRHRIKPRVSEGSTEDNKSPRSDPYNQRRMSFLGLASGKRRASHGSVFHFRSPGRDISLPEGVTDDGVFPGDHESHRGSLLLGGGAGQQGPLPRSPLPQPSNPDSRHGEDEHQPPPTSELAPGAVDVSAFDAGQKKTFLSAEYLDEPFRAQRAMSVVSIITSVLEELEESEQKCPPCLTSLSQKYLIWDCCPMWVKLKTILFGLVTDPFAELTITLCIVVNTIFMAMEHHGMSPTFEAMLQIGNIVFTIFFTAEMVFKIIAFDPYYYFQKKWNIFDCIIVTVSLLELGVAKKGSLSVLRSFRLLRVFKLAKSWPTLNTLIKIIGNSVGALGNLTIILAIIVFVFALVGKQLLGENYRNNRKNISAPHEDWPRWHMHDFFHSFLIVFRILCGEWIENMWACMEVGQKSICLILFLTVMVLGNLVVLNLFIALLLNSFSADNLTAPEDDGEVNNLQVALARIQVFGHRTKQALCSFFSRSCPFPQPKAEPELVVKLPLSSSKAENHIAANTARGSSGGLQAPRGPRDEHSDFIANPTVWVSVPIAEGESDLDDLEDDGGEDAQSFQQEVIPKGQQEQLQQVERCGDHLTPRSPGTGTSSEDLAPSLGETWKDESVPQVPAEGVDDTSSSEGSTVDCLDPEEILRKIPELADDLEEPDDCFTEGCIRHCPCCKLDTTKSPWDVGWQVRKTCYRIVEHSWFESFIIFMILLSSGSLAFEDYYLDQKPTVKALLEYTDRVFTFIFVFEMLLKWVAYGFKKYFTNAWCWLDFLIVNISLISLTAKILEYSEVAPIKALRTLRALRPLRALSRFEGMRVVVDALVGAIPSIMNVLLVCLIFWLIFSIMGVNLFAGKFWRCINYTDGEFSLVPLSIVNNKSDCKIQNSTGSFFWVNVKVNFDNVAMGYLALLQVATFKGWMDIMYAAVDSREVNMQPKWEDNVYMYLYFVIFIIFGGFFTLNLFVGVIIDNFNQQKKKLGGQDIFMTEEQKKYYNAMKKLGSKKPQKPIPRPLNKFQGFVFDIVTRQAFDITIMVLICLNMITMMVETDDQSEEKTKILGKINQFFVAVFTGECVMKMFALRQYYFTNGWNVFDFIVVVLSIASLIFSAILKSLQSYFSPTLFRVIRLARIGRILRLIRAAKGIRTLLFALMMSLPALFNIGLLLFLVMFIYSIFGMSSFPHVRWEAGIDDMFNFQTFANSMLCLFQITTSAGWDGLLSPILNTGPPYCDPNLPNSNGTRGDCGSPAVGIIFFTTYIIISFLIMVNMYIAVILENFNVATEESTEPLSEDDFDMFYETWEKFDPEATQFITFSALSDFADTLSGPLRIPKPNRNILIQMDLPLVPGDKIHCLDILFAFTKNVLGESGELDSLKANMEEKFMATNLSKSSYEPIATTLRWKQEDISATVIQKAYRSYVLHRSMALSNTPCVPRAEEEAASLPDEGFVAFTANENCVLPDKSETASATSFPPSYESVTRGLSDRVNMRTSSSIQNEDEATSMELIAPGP

COc1ccc([C@H]2CC(=O)c3c(O)cc(OC)cc3O2)cc1 [(−)-NRG-DM, (−)-naringenin 4′,7-dimethyl ether]
V1/2 of activation of Kv currents [1]: −8.08 ± 2.02 mV | inhibitory ratio (Nav1.8 channel; 30 µM): 44 ± 3% | IDrug/IControl (Nav1.8 channel; 30 μM, HEK293): 0.56 ± 0.03 | V1/2 of steady-state inactivation of Nav1.8 (Nav1.8 channel; 30 µM, control −48.58 ± 0.67 mV): −53.37 ± 0.70 mV | IC50 [2]: 119.9 ± 0.03 µM | V1/2 of activation, total Nav currents ([3]; 30 μM, control −15.34 ± 0.58 mV): −15.23 ± 0.56 mV | V1/2 of steady-state inactivation, total Nav currents ([3]; 30 µM, control −65.72 ± 1.74 mV): −55.34 ± 2.14 mV | IC50 ([3]; Mus musculus, DRG neuron, n = 5): 34.78 ± 0.14 µM | reduction in INa ([3]; at plasma concentration from pharmacokinetic study (around 7 µM)): around 28% | painful behaviors (licking time and pain score) ([4]; 30 mg/kg i.p. 30 min before 1% formalin): only had a significant influence in phase I | painful behaviors (licking time and overall pain score) ([4]; 50 mg/kg i.p. 30 min before 1% formalin): significantly attenuated painful behaviors | Fall nFall /nTest ([5]; 100 mg/kg i.p., 0.5 h): 0/10 | Motor Impairment (%) ([5]; 100 mg/kg i.p., 0.5 h): 0% | Fall nFall /nTest ([5]; 100 mg/kg i.p., 1 h): 0/10 | Motor Impairment (%) ([5]; 100 mg/kg i.p., 1 h): 0% | ability to remain on the rotating rod ([5]; 100 mg/kg, 200 mg/kg, or 400 mg/kg i.p.): no significant effects | Fall nFall /nTest ([5]; 200 mg/kg i.p., 0.5 h): 1/10 | Motor Impairment (%) ([5]; 200 mg/kg i.p., 0.5 h): 10% | Fall nFall /nTest ([5]; 200 mg/kg i.p., 1 h): 0/10 | Motor Impairment (%) ([5]; 200 mg/kg i.p., 1 h): 0% | Fall nFall /nTest ([5]; 400 mg/kg i.p., 0.5 h): 0/10 | Motor Impairment (%) ([5]; 400 mg/kg i.p., 0.5 h): 0% | Fall nFall /nTest ([5]; 400 mg/kg i.p., 1 h): 0/10 | Motor Impairment (%) ([5]; 400 mg/kg i.p., 1 h): 0% | signs of toxicity ([5]; 100, 200, 400 mg/kg i.p., during rotarod test (0.5 and 1 h) and 24 h after administration): no sign of toxicity
